Patent US10981864B2, “Crystalline modifications of N-(4,5-bismethanesulfonyl-2-methylbenzoyl)guanidine hydrochloride and N-(4,5-bismethanesulfonyl-2-methylbenzoyl)guanidine salts” (MERCK PATENT GMBH, priority 2016, dated 2021)
Where “and” joins values, the source holds several entries; their conditions need not be identical. Equal entries are not always repeated. Entries after “also recorded” stand apart in the source; their conditions may differ. Structures can show the parent of a compound that is named as a salt.

Columns and labels:
Type in all cases: physicochemical
[1] = Mini-dissolution in FeSSIF medium (pH 5.0), dissolved quantity by HPLC; settings: for Dissolution levels in FeSSIF pH 5.0: FeSSIF pH 5.0, 37° C.; for Dissolution behavior compared to prior-art form HCl-H1: biorelevant media, Fed-state conditions (FeSSIF, pH 5.0)
Protocol: Approximately 10-12 mg of N-(4,5-bis-methanesulfonyl-2-methyl-benzoyl)guanidine form HCl-H1 (HCl salt hydrate form, prior-art), HCl salt anhydrous forms (forms HCl-A1, HCl-A2, HCl-A3), and novel salt forms [phosphate salt (form Phosphate-NF1), maleate salt (form Maleate-NF2), oxalate salt (form Oxalate-NF1), citrate salt (form citrate-NF1), sulfate salt (form Sulfate-NF3), succinate salt (form Succinate-NF1), malonate salt (form Malonate-NF1), besylate salt (form Besylate-NF1), p-tosylate salt (form Tosylate-NF1), malate salt (form Malate-NF1), fumarate salt (form Fumarate-NF1), tartrate salt (form Tartrate-NF1)] are weighed into 4 mL glass vials, and dispersed in 4 mL FeSSIF medium (pH 5.0, Acetate buffer capacity increased by factor 4 to ensure stable pH conditions over course of dissolution experiments).
All dispersions are agitated at 37° C. for up to 2 hours. At defined time intervals (5 min, 15 min, 60 min, 120 min), 0.4 mL sample aliquots of homogeneous dispersions are withdrawn by a syringe, and filtrated via syringe filter adapters (PTFE, 0.2 μm). Clear filtrates are diluted (1:20) with respective Acetate blank buffer, and diluted samples analyzed by HPLC for dissolved quantities of N-(4,5-bis-methanesulfonyl-2-methyl-benzoyl)-guanidine.

[2] = Water Vapour Sorption isotherm (DVS), hygroscopicity acc. to Ph. Eur.; settings: for Water uptake levels (Water Vapour Sorption): 25° C.; for Tendency to undergo hydrate formation: upon exposure to elevated RH levels
Protocol: As used herein, unless stated otherwise, Water Vapour Sorption isotherm measurements are carried out on a DVS-1 or a DVS-Intrinsic system from SMS.
A second endothermic event occurs at >180° C., which is due to melting of the dehydrated form. This is followed by immediate re-crystallisation (exothermic event), and subsequent melting of the re-crystallized phase at >240° C. […] DSC scan of form HCl-H1 was acquired on a Mettler-Toledo DSC 821 with a heating rate of 5 K/min, using nitrogen purge gas at 50 mL/min. […] Form HCl-H1 can be classified as non-hygroscopic acc. to Ph. Eur. criteria (section 5.11.). […] Water Vapour Sorption isotherm was acquired on a DVS-1 system from SMS. • Dissolution level of form HCl-H1 in Fed-State Simulated Intestinal Fluid [FeSSIF, pH 5.0] at 37° C. was determined to be approx. 1.50 mg/mL (after 15 min), approx. 4.16 mg/mL (after 60 min), and approx. 4.54 mg/mL (after 120 min), respectively (see example 17).

[3] = Thermal behaviour (DSC/TGA), thermal stability; settings: DSC/TGA 5 K/min
Protocol: As used herein, unless stated otherwise, the DSC measurements are carried out using a Mettler-Toledo DSC 821 with a heating rate of 5 K/min, using nitrogen purge gas at 50 mL/min.
As used herein, unless stated otherwise, the TGA measurements are carried out using a Mettler-Toledo TGA 851 with a heating rate of 5 K/min, using nitrogen purge gas at 50 mL/min.

[4] = relative humidity range 0-90% rh
[5] = relative humidity range 0-80% rh
[6] = entire relative humidity range 0-98% rh

SMILES | Dissolution levels in FeSSIF pH 5.0 ([1]; 5 min) [mg/mL] | Dissolution levels in FeSSIF pH 5.0 ([1]; 15 min) | Dissolution levels in FeSSIF pH 5.0 ([1]; 60 min) | Dissolution levels in FeSSIF pH 5.0 ([1]; 120 min) | Dissolution behavior compared to prior-art form HCl-H1 [1] | Hygroscopicity classification acc. to Ph. Eur. criteria (section 5.11.) [2] | Water uptake levels (Water Vapour Sorption) [2, 4] [wt %] | Thermal stability (mp/dec) [3] [°C] | Water uptake levels (Water Vapour Sorption) [2, 5] [wt %] | Tendency to undergo hydrate formation [2] | Water uptake levels (Water Vapour Sorption) ([2]; relative humidity range 10-90% rh) | Water uptake levels (Water Vapour Sorption) [2, 6] [wt %]
Cc1cc(S(C)(=O)=O)c(S(C)(=O)=O)cc1C(=O)NC(=N)N (racemic) [Tartrate-NF1, N-(4,5-bis-methanesulfonyl-2-methyl-benzoyl)-guanidine] | 5.165 | 5.17±0.02 mg/mL and 5.165 mg/mL | 5.17±0.02 mg/mL and 5.165 mg/mL | 5.17±0.02 mg/mL | improved dissolution behavior | slightly hygroscopic | ≤ 1.0 | – | – | – | – | –
Cc1cc(S(C)(=O)=O)c(S(C)(=O)=O)cc1C(=O)NC(=N)N [Besylate-NF1, N-(4,5-bis-methanesulfonyl-2-methyl-benzoyl)-guanidine] | 4.059 | 5.57±0.02 mg/mL and 5.570 mg/mL | 5.57±0.02 mg/mL and 5.570 mg/mL | 3.87±0.02 mg/mL and 3.873 mg/mL | improved dissolution behavior | slightly hygroscopic | – | > 280 | 1.0 | – | – | –
Cc1cc(S(C)(=O)=O)c(S(C)(=O)=O)cc1C(=O)NC(=N)N [Citrate-NF1, N-(4,5-bis-methanesulfonyl-2-methyl-benzoyl)-guanidine] | 2.056 | 4.13±0.02 mg/mL and 4.132 mg/mL | – | – | improved dissolution behavior | slightly hygroscopic | ≤ 1.5 | ~180 | – | no tendency to undergo hydrate formation | – | –
Cc1cc(S(C)(=O)=O)c(S(C)(=O)=O)cc1C(=O)NC(=N)N [Fumarate-NF1, N-(4,5-bis-methanesulfonyl-2-methyl-benzoyl)-guanidine] | 2.606 | 4.22±0.02 mg/mL and 4.222 mg/mL | 4.34±0.02 mg/mL and 4.337 mg/mL | 4.36±0.02 mg/mL and 4.361 mg/mL | improved dissolution behavior | slightly hygroscopic | – | – | – | – | – | –
Cc1cc(S(C)(=O)=O)c(S(C)(=O)=O)cc1C(=O)NC(=N)N [HBr-NF1, N-(4,5-bis-methanesulfonyl-2-methyl-benzoyl)-guanidine] | – | – | – | – | – | non-hygroscopic | – | – | – | – | 4.3-4.4 wt % | –
Cc1cc(S(C)(=O)=O)c(S(C)(=O)=O)cc1C(=O)NC(=N)N [HCl-A1, N-(4,5-bis-methanesulfonyl-2-methyl-benzoyl)-guanidine] | 0.541 | 0.87±0.02 mg/mL and 0.866 mg/mL | 2.53±0.02 mg/mL and 2.535 mg/mL | 2.76±0.02 mg/mL and 2.765 mg/mL | – | – | – | – | – | – | – | –
Cc1cc(S(C)(=O)=O)c(S(C)(=O)=O)cc1C(=O)NC(=N)N [HCl-A2, N-(4,5-bis-methanesulfonyl-2-methyl-benzoyl)-guanidine] | 0.990 | 1.19±0.02 mg/mL and 1.193 mg/mL | 1.90±0.02 mg/mL and 1.897 mg/mL | 2.21±0.02 mg/mL and 2.213 mg/mL | – | non-hygroscopic | – | > 240 | 0.1 | – | – | –
Cc1cc(S(C)(=O)=O)c(S(C)(=O)=O)cc1C(=O)NC(=N)N [HCl-A3, N-(4,5-bis-methanesulfonyl-2-methyl-benzoyl)-guanidine] | 0.418 | 0.74±0.02 mg/mL and 0.738 mg/mL | 2.51±0.02 mg/mL and 2.506 mg/mL | 3.78±0.02 mg/mL and 3.781 mg/mL | – | non-hygroscopic | – | > 240 | – | – | – | ≤ 0.4
Cc1cc(S(C)(=O)=O)c(S(C)(=O)=O)cc1C(=O)NC(=N)N.Cl.O [HCl-H1, N-(4,5-bismethanesulfonyl-2-methylbenzoyl)-guanidine hydrochloride hydrate, reference compound] | 0.494 | – | – | – | – | non-hygroscopic | – | – | – | – | – | ≤ 0.2
Cc1cc(S(C)(=O)=O)c(S(C)(=O)=O)cc1C(=O)NC(=N)N [Malate-NF1, N-(4,5-bis-methanesulfonyl-2-methyl-benzoyl)-guanidine] | 5.510 | 5.51±0.02 mg/mL and 5.510 mg/mL | 5.51±0.02 mg/mL and 5.510 mg/mL | 4.27±0.02 mg/mL and 4.275 mg/mL | improved dissolution behavior | hygroscopic | 7.5 | – | – | – | – | –
Cc1cc(S(C)(=O)=O)c(S(C)(=O)=O)cc1C(=O)NC(=N)N [Maleate-NF1, N-(4,5-bis-methanesulfonyl-2-methyl-benzoyl)-guanidine] | – | – | – | – | – | – | – | > 170 | – | – | – | –
Cc1cc(S(C)(=O)=O)c(S(C)(=O)=O)cc1C(=O)NC(=N)N [Maleate-NF2, N-(4,5-bis-methanesulfonyl-2-methyl-benzoyl)-guanidine] | 2.043 | 4.30±0.02 mg/mL and 4.296 mg/mL | 6.35±0.02 mg/mL and 6.350 mg/mL | 6.35±0.02 mg/mL and 6.350 mg/mL | improved dissolution behavior | non-hygroscopic; also recorded: slightly hygroscopic | – | > 200 | – | no tendency to undergo hydrate formation | – | ≤ 0.3
Cc1cc(S(C)(=O)=O)c(S(C)(=O)=O)cc1C(=O)NC(=N)N [Malonate-NF1, N-(4,5-bis-methanesulfonyl-2-methyl-benzoyl)-guanidine] | 3.527 | 5.340 mg/mL | 5.77±0.02 mg/mL and 5.770 mg/mL | 5.79±0.02 mg/mL and 5.790 mg/mL | improved dissolution behavior | slightly hygroscopic | – | > 190 | ≤ 1.0 | – | – | –
Cc1cc(S(C)(=O)=O)c(S(C)(=O)=O)cc1C(=O)NC(=N)N [Oxalate-NF1, N-(4,5-bis-methanesulfonyl-2-methyl-benzoyl)-guanidine] | 1.329 | 2.09±0.02 mg/mL and 2.095 mg/mL | 3.04±0.02 mg/mL and 3.042 mg/mL | 3.02±0.02 mg/mL and 3.025 mg/mL | improved dissolution behavior | non-hygroscopic | – | > 260 | – | no tendency to undergo hydrate formation | – | –
